Test system: porcine skin (ER); EpiDerm™ normal human derived epidermal keratinocytes (IP)
Assay: ER/IP: skin conductivity enhancement ratio (INSIGHT apparatus) divided by irritation potential (EpiDerm MTT viability)
Design: species or system Yorkshire pigs; human
Details: EpiDerm and INSIGHT apparatus, procedures of Examples 1 and 2; FIG. 32 left-hand panel
Procedure: Formulations containing 1.5% (wt/vol) of each CPE were prepared in a 1:1 EtOH:PBS (ethanol:phosphate buffered saline) solvent.
Irritation potential of formulations was estimated using EpiDerm™ (MatTek Corporation, Ashland, Mass. www.mattek.com), a cell culture of normal human derived epidermal keratinocytes. EpiDerm™ cultures were stored and handled according to the standard protocol MTT-ET-50 supplied by MatTek Corporation. To study the effect of the test formulations on cell viability, cell cultures were exposed to 10 μl of the test formulation consisting of 1.5% (wt/vol) of each CPE in a 1:1 EtOH:PBS solvent for 4 hours. Each test formulation was analyzed in duplicate. The cell cultures were then handled as per the MTT-ET-50 protocol. The optical absorbance data from the extracted samples was then used to calculate the percentage cell viability as recommended in the protocol. Based on the cell viability, the irritation potential, IP, was defined as follows:
1% (wt/vol) Triton X-100 dissolved in water was used as the positive control and 1:1 PBS:EtOH was used as negative control. […]
Enhancement ratios were measured using an apparatus (the INSIGHT apparatus) which consisted of a polycarbonate plate that served as the receptor plate and a Teflon® plate that served as the donor plate. […]
Skin impedance in each well was recorded using two electrodes. […]

C=C(C)C(=O)OCCCCCCCCCCCCCCCCCC [SM, stearyl methacrylate]
FP/IPDescriptor (ER/IP determined experimentally) relative to oleic acid: about 3 times

Source: patent US20090105260A1, “Molecules to Enhance Percutaneous Delivery and Methods for Discovery Therefor” (priority 2005, published 2009)
